Reference: patent US9187496B2 (priority 2009, dated 2015)
Like-named read-outs stand apart in the source and are kept apart here.

How the values were obtained:
[1] = test system: HCV genotype 1b Conl strain subgenomic luciferase replicon (Zluc); assay: Luciferase replicon assay, genotype 1b; assay type: cell-based; conditions: Hepatitis C virus, 72 h, read-out: EC50 1b
Experimental: (§1) The HCV luciferase replicon assay measures the ability of a test compound to inhibit HCV replication in cell culture after 3 days of treatment in a human hepatoma cell line (Huh-7) bearing a HCV replicon containing a luciferase-neomycin phosphotransferase fusion gene. The inhibition of HCV replication was measured by quantification of luciferase protein expression. Briefly, Huh-7 cells containing either the HCV genotype 1a H77 strain or genotype 1b Conl strain subgenomic luciferase replicon (H1a-luc or Zluc, respectively) were grown in DMEM containing glucose, L-glutamine and sodium pyruvate, 10% fetal bovine serum (FBS), 100 IU/mL penicillin, 100 μg/mL streptomycin, 2 mM GlutaMAX, non-essential amino acids and 0.25 (H1a-luc) or 0.5 (Zluc) mg/mL G418. GlutaMAX was obtained from Invitrogen, Corp.; all other media reagents were obtained from Mediatech, Inc. For dose-response testing, the cells were seeded in 96-well plates at 1×10^4 (H1a-luc) or 7.5×10^3 (Zluc) cells/well in a volume of 50 μL, and incubated at 37° C./5% CO2. Three hours after plating, 50 μL of ten 5-fold serial dilutions of compound were added, and cell cultures were incubated at 37° C./5% CO2 for 72 hours. In all cases, Huh-7 cells lacking the HCV replicon served as negative control. To assess luciferase expression, the media/compound was removed from the plates and ONE-glo Luciferase assay reagent (Promega) was added to each well. The assay plates were shaken for 3 minutes at room temperature and luciferase activity for each well was measured with a 1 sec read time on the Victor^3V multilabel counter using a 700 nm cut-off filter (Perkin Elmer). EC50 values were calculated from dose response curves from the resulting best-fit equations determined by Microsoft Excel and XLfit 4.1 software.

[2] = test system: HCV genotype 3a-specific NS5A gene within the 1b-replicon; assay: Luciferase replicon assay, NS5A-intergenotypic stable cell line genotype 3a; assay type: cell-based; conditions: Hepatitis C virus, read-out: EC50 3a
From the text: (§2) The nucleotide sequences of the NS5A region of genotype 2a (GenBank Accession #AB047639), genotype 3a (GenBank Accession #D17763), and genotype 4a (GenBank Accession#DQ418788) were synthesized by an outside vendor. The NS5A region of each of these genotypes included the first 11 amino acids of the protease recognition sequence of genotype 1b, as well as the last 10 amino acids of genotype 1b. The NS5A gene cassettes were excised with site specific restriction endonucleases and ligated into a ZS11-luciferase genotype 1b backbone (backbone contains the genotype 1b NS3 protease, NS4a, NS4b, and NS5b coding regions) with similarly cut restriction enzyme sites. Thus, the newly constructed plasmid contains a genotype 2a-, 3a- or 4a-specific NS5A gene within the 1b-replicon.
(§3) These new intergenotypic plasmids were used to establish stable cell lines. RNA was generated from the NS5A intergenotypic plasmids and used in conjunction with a lipofectin reagent to transfect a cured Huh7 cell line. Transfected cells were selected for with G418. After selection has occurred the stable cell lines were propagated, tested for luciferase activity, and RT-PCR with genotype specific primers (either 1a, 2a, 3a, or 4a). Stable cell lines containing the intergenotypic replicon were then fully sequenced and analysed for proper expression of NS3, NS5A and NS5B proteins.
(§4) Drug titration analysis was performed using the luciferase replicon assay described herein.
as §1

[3] = test system: HCV genotype 2a-specific NS5A gene within the 1b-replicon; assay: Luciferase replicon assay, NS5A-intergenotypic stable cell line genotype 2a; assay type: cell-based; conditions: Hepatitis C virus, read-out: EC50 2a
From the text: as §2, §3, §4, §1

[4] = test system: HCV genotype 4a-specific NS5A gene within the 1b-replicon; assay: Luciferase replicon assay, NS5A-intergenotypic stable cell line genotype 4a; assay type: cell-based; conditions: Hepatitis C virus, read-out: EC50 4a
From the text: as §2, §3, §4, §1

[5] = Cytotoxicity evaluation in luciferase replicon cells (Cell Titer 96 AQueous One); assay type: cell-based, human; conditions: human; Table 1B, cellular viability
Experimental: For cytotoxicity evaluation, H1a-luc or Zluc cells were treated with compounds as described above and cellular viability was monitored using the Cell Titer 96 AQueous One Solution Cell Proliferation Assay (Promega). Plates were then read at 490 nm in a Victor^3V 1420 multilabel counter (Perkin Elmer) and CC50 concentrations were determined using Microsoft Excel and XLfit 4.1 software.

GS4.1 cells = assay: Cytotoxicity evaluation in GS4.1 cells (Cell Titer 96 AQueous One); assay type: cell-based, human; conditions: cellular viability
Experimental: For cytotoxicity evaluation, GS4.1 cells were treated with compounds as described above and cellular viability was monitored using the Cell Titer 96 AQueous One Solution Cell Proliferation Assay (Promega). CC50 values were determined from the % cytotoxicity versus concentration data with Tecan Magellan software as described above.

[6] = test system: Huh-7 cells containing HCV Con1 subgenomic replicon (GS4.1 cells); assay: HCV replicon assay (NS5A ELISA); assay type: cell-based; conditions: GS4.1 cells, 72 hrs, NS5A ELISA, read-out: EC50
Experimental: General Procedure: Huh-7 cells containing HCV Con1 subgenomic replicon (GS4.1 cells) were grown in Dulbecco's Modified Eagle Medium (DMEM) supplemented with 10% fetal bovine serum (FBS), 2 mM L-glutamine, 110 mg/L sodium pyruvate, 1× non-essential amino acids, 100 U/mL penicillin-streptomycin, and 0.5 mg/mL G418 (Invitrogen). For dose-response testing, the cells were seeded in 96-well plates at 7.5×10^3 cells/well in a volume of 50 μL, and incubated at 37° C./5% CO2. Three hours after plating, 50 μL of ten 2-fold serial dilutions of compounds (highest concentration, 75 μM) were added, and cell cultures were incubated at 37° C./5% CO2 in the presence of 0.5% DMSO. Alternatively, compounds were tested at a single concentration of 15 μM. In all cases, Huh-7 cells lacking the HCV replicon served as negative control. The cells were incubated in the presence of compounds for 72 hrs after which they were monitored for expression of the NS5A protein by enzyme-linked immunosorbent assay (ELISA). For this, the plates were then fixed for 1 min with acetone/methanol (1:1, v/v), washed twice with phosphate-buffered saline (PBS), 0.1% Tween 20, blocked for 1 hr at room temperature with TNE buffer containing 10% FBS and then incubated for 2 hr at 37° C. with the anti-NS5A mouse monoclonal antibody A-236 (ViroGen) diluted in the same buffer. After washing three times with PBS, 0.1% Tween 20, the cells were incubated 1 hr at 37° C. with anti-mouse immunoglobulin G-peroxidase conjugate in TNE, 10% FBS. After washing as described above, the reaction was developed with O-phenylenediamine (Zymed). The reaction was stopped after 30 min with 2 N H2SO4, and absorbance was read at 492 nm using Sunrise Tecan spectrophotometer. EC50 values were determined from the % inhibition versus concentration data using a sigmoidal non-linear regression analysis based on four parameters with Tecan Magellan software.

COC(=O)N[C@H](C(=O)N1CCC[C@H]1c1nc2cc(-c3csc4c(-c5ccc(-c6cnc([C@@H]7CCCN7C(=O)[C@H](NC(=O)OC)c7ccccc7)[nH]6)cc5)csc34)ccc2[nH]1)C(C)C [Compound A169, [(S)-1-((S)-2-{6-[6-(4-{(S)-2-[1-((R)-2-methoxycarbonylamino-2-phenyl-acetyl)-pyrrolidin-2-yl]-3H-imidazol-4-yl}-phenyl)-thieno[3,2-b]thiophen-3-yl]-1H-benzoimidazol-2-yl}-pyrrolidine-1-carbonyl)-2-methyl-propyl]-carbamic acid methyl ester]
EC50 [1]: < 0.1 nM | EC50 [2]: < 0.1 nM | EC50 [3]: < 0.1 nM | EC50 [4]: < 0.1 nM | CC50 at 72 h [5]: > 75000 nM

COC(=O)N[C@H](C(=O)N1CCC[C@H]1c1nc2ccc(-c3cc4sc(-c5ccc(-c6c[nH]c([C@@H]7CCCN7C(=O)[C@H](NC(=O)OC)c7ccccc7)n6)cc5)cc4s3)cc2[nH]1)C(C)C [Compound A215, [(S)-1-((S)-2-{6-[5-(4-{(S)-2-[1-((R)-2-methoxycarbonylamino-2-phenyl-acetyl)-pyrrolidin-2-yl]-1H-imidazol-4-yl}-phenyl)-thieno[3,2-b]thiophen-2-yl)-1H-benzoimidazol-2-yl}-pyrrolidine-1-carbonyl)-2-methyl-propyl]-carbamic acid methyl ester]
EC50 [1]: < 0.1 nM | EC50 [2]: < 0.1 nM | EC50 [3]: < 0.1 nM | EC50 [4]: < 0.1 nM | CC50 at 72 h [5]: > 75000 nM

COC(=O)N[C@H](C(=O)N1CCCC1c1nc(-c2ccc(-c3cn4cc(-c5ccc(-c6cnc([C@@H]7CCCN7C(=O)[C@@H](NC(=O)OC)C(C)C)[nH]6)cc5)sc4n3)cc2)c[nH]1)C(C)C (stereo partly drawn) [A93]
CC50 (GS4.1 cells): > 75000 nM | EC50 ([6]; Hepatitis C virus, Huh-7): < 1 nM

COC(=O)N[C@H](C(=O)N1CCCC1c1ncc(-c2ccc(-c3cn4c(-c5ccccc5)csc4n3)cc2)[nH]1)C(C)C (stereo partly drawn) [A162]
CC50 (GS4.1 cells): 10000 to 75000 nM | EC50 ([6]; Hepatitis C virus, Huh-7): 1 to 10 nM

COC(=O)N[C@H](C(=O)N1CCCC1c1ncc(-c2ccc(-c3cc4sc(Br)cc4s3)cc2)[nH]1)C(C)C (stereo partly drawn) [A168]
CC50 (GS4.1 cells): 10000 to 75000 nM | EC50 ([6]; Hepatitis C virus, Huh-7): 10 to 100 nM

COC(=O)N[C@H](C(=O)N1CCCC1c1cc(-c2ccc(-c3csc4c(-c5ccc(-c6cnc(C7CCCN7C(=O)[C@@H](NC(=O)OC)C(C)C)[nH]6)cc5)csc34)cc2)[nH]n1)C(C)C (stereo partly drawn) [A87]
CC50 (GS4.1 cells): > 75000 nM | EC50 ([6]; Hepatitis C virus, Huh-7): < 1 nM

CC(C)(C)OC(=O)N[C@@H](C(=O)N1CCOC[C@H]1C(=O)Nc1cn2cc(-c3ccccc3)sc2n1)c1ccccc1 [Compound A22]
CC50 (GS4.1 cells): > 75000 nM | EC50 ([6]; Hepatitis C virus, Huh-7): > 100 nM

COC(=O)N[C@H](C(=O)N1CCC[C@H]1c1ncc(-c2ccc(-c3cn4cc(NC(=O)[C@@H]5CCCN5C(=O)[C@H](NC(=O)OCC(C)C)c5ccccc5)nc4s3)cc2)[nH]1)C(C)C [A57]
CC50 (GS4.1 cells): > 75000 nM | EC50 [6]: < 1 nM

COC(=O)N[C@@H](C(=O)N1CCC[C@H]1C(=O)Nc1ccc(-c2cn3cc(NC(=O)[C@@H]4CCCN4C(=O)[C@H](NC(=O)OC)c4ccccc4)nc3s2)cc1)c1ccccc1 [A79]
CC50 (GS4.1 cells): > 75000 nM | EC50 [6]: < 1 nM

COC(=O)N[C@H](C(=O)N1CCC[C@H]1C(=O)Nc1ccc(-c2cn3cc(NC(=O)OC(C)(C)C)nc3s2)cc1)C(C)C [A34]
CC50 (GS4.1 cells): 10000 to 75000 nM | EC50 [6]: 1 to 10 nM

COC(=O)N[C@H](C(=O)N1CCC[C@H]1C(=O)Nc1cn2cc(-c3ccc(NC(=O)CNC(=O)[C@H](NC(=O)OC(C)(C)C)c4ccccc4)cc3)sc2n1)C(C)C [A147]
CC50 (GS4.1 cells): > 75000 nM | EC50 ([6]; Hepatitis C virus, Huh-7): 10 to 100 nM

COC(=O)N[C@H](C(=O)N1CCC[C@H]1C(=O)Nc1cn2cc(-c3cccc(NC(=O)[C@@H]4CCCN4C(=O)[C@H](NC(=O)OC)c4ccccc4)c3)sc2n1)C(C)C [A149]
CC50 (GS4.1 cells): 10000 to 75000 nM | EC50 ([6]; Hepatitis C virus, Huh-7): 10 to 100 nM

COC(=O)N[C@H](C(=O)N1CCCC1c1ncc(-c2ccc(-n3ccc4c(-c5cnc(C6CCCN6C(=O)[C@@H](NC(=O)OC)C(C)C)[nH]5)csc43)c(Cl)c2)[nH]1)C(C)C (stereo partly drawn) [Compound A213]
EC50 [1]: < 0.1 nM | CC50 at 72 h [5]: 10000 to 75000 nM

CC(C)(C)OC(=O)N1CCCC1c1ncc(-c2ccc(-c3nc4sccn4c3Cl)cc2)[nH]1 (stereo not drawn) [A161]
CC50 (GS4.1 cells): > 75000 nM | EC50 ([6]; Hepatitis C virus, Huh-7): > 100 nM

CC(C)(C)OC(=O)N[C@@H](C(=O)N1CCC[C@H]1C(=O)Nc1cn2cc(C#Cc3ccccc3)sc2n1)c1ccccc1 [Compound A23]
CC50 (GS4.1 cells): 10000 to 75000 nM | EC50 ([6]; Hepatitis C virus, Huh-7): > 100 nM

COC(=O)N[C@H](C(=O)N1CCCC1c1ncc(-c2ccc(-c3ccc(-c4nc5sccn5c4Cl)cc3)cc2)[nH]1)C(C)C (stereo partly drawn) [A154]
CC50 (GS4.1 cells): 10000 to 75000 nM | EC50 ([6]; Hepatitis C virus, Huh-7): 10 to 100 nM

COC(=O)N[C@H](C(=O)N1CCC[C@H]1c1ncc(-c2ccc(-c3cn4cc(-c5cnc(C6CCCN6C(=O)[C@@H](NC(=O)OC(C)(C)C)c6ccccc6)[nH]5)nc4s3)cc2)[nH]1)C(C)C (stereo partly drawn) [A33]
CC50 (GS4.1 cells): > 75000 nM | EC50 ([6]; Hepatitis C virus, Huh-7): < 1 nM

COC(=O)N[C@H](C(=O)N1CCCC1c1ncc(-c2ccc(-c3csc4c(-c5cnc(C6CCCN6C(=O)OC(C)(C)C)[nH]5)csc34)cc2)[nH]1)C(C)C (stereo partly drawn) [A151]
CC50 (GS4.1 cells): 10000 to 75000 nM | EC50 [6]: < 1 nM

COC(=O)N[C@H](C(=O)N1CCC[C@H]1c1ncc(-c2ccc(-c3cn4cc(NC(=O)[C@@H]5CCCN5)nc4s3)cc2)[nH]1)C(C)C [A150]
CC50 (GS4.1 cells): 10000 to 75000 nM | EC50 [6]: 10 to 100 nM

COC(=O)N[C@H](C(=O)N1CCC[C@H]1c1ncc(-c2ccc(-c3cn4cc(NC(=O)[C@@H]5CCCN5C(=O)[C@H](NC(=O)OC(C)(C)C)c5ccccc5)nc4s3)cc2)[nH]1)C(C)C [Compound A1, (S,S,S,R)-[1-(2-{5-[4-(6-{[1-(2-tert-butoxycarbonylamino-2-phenyl-acetyl)-pyrrolidine-2-carbonyl]-amino}imidazo[2,1-b]thiazol-2-yl)-phenyl]-1H-imidazol-2-yl}pyrrolidine-1-carbonyl)-2-methyl-propyl]-carbamic acid methyl ester]
CC50 (GS4.1 cells): > 75000 nM | EC50 ([6]; Hepatitis C virus, Huh-7): < 1 nM

COC(=O)N[C@H](C(=O)N1CCC[C@H]1C(=O)Nc1ccc(-c2cn3cc(NC(=O)C4CCCN4C(=O)[C@@H](NC(=O)OC)C(C)C)nc3s2)cc1)c1ccccc1 (stereo partly drawn) [A32]
CC50 (GS4.1 cells): > 75000 nM | EC50 ([6]; Hepatitis C virus, Huh-7): < 1 nM
